Results as given in patent publication US20180153995A1, “USE OF ANTIMICROBIAL POLYMERS FOR RE-SENSITIZATION OF MICROORGANISMS UPON EMERGENCE OF RESISTANCE TO ANTI-MICROBIAL AGENTS” (Technion Research & Development Foundation Limited, priority 2008, published 2018).
Read-outs that look alike come from different tables or passages of the source.

Assays:
S. aureus 15819 = test: Antibiotic MIC by microdilution with or without sub-MIC polymer; assay type: cell-based, Staphylococcus aureus; conditions: S. aureus 15819
E. coli 16329 = assay type: cell-based, Escherichia coli; conditions: E. coli U-16329
Summary of the method: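 Bacterial suspensions (100 μl) were added to 100 μl of culture medium carrying 2-fold serially diluted antibiotic together with a fraction of the polymer's MIC, or to plain medium as control. Plates were incubated 24 hours at 37° C, and proliferation was read at 620 nm against calibration standards. Starting inoculum was 10^5 bacteria per ml.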

S. maltophila 748 = test: Antibiotic MIC by microdilution with or without sub-MIC polymer; assay type: cell-based, Stenotrophomonas maltophila
MRSA 15903 = test: microbe, parasite or virus in culture; assay type: cell-based, Staphylococcus aureus
Summary of the method: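 Two-agent combinations tested against MRSA 15903; FIC index = A/MICA + B/MICB, using MICs in combination versus alone. Below 0.5 read as clear re-sensitizing, 0.5–4 marginal or null, above 4 antagonism.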

[1] = system: E. coli K-12 efflux knockout mutant; assay type: cell-based, Escherichia coli; conditions: E. coli AG100A (efflux−)
Summary of the method: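 Broth microdilution, inocula 10^5 bacteria/ml, 24 h at 37 °C. Growth read as OD620 against calibration standards.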

[2] = system: E. coli K-12 resistant wild type; assay type: cell-based, Escherichia coli; conditions: E. coli AG100 (w.t.)
S. aureus 43300 = test: Antibiotic MIC by microdilution with or without sub-MIC polymer; assay type: cell-based, Staphylococcus aureus
S. aureus 17314 = test: as above; assay type: cell-based, Staphylococcus aureus; conditions: S. aureus 17314
S. aureus 15877 = test: as above; assay type: cell-based, Staphylococcus aureus
E. coli 14384 = test: as above; assay type: cell-based, Escherichia coli; conditions: E. coli 14384
Summary of the method: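 Microdilution MICs used 10^5 bacteria per ml and 2-fold serial dilutions of antibiotic in medium, alone or combined with […]. Plates stood 24 hours at 37° C before turbidity reading at 620 nm.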

E. coli 16327 = test: microbe, parasite or virus in culture
E. coli 14182 = test: Antibiotic MIC by microdilution with or without sub-MIC polymer; assay type: cell-based, Escherichia coli
[3] = +¼ MIC (1.6 μM) C12(5-ene)KKNC12KNH2
[4] = +¼ MIC (1.6 μM) C12K(KNC12K)3NH2
[5] = +⅓ MIC (2.1 μM) C12K(KNC12K)3NH2
[6] = polymer at ¼ of its MIC (Table 16)
[7] = polymer at ½ of its MIC (Table 16)
[8] = polymer at ⅓ of its MIC (Table 16)
[9] = +¼ MIC (1.6 μM) C12K(KNC12K)2NH2
[10] = +½ MIC (3.12 μM) C12K(KNC12K)2NH2
[11] = +⅓ MIC (2.1 μM) C12K(KNC12K)2NH2
[12] = +½ MIC (3.12 μM) C14(9-ene)KKNC12KNH2

CN(C)[C@@H]1C(O)=C(C(N)=O)C(=O)[C@@]2(O)C(O)=C3C(=O)c4c(O)cccc4[C@@](C)(O)[C@H]3C[C@@H]12 [Tetracycline, tetracycline]
1 to 2 µg/mL: Antibiotic MIC in presence of C12K(NC8K)7NH2 (SEQ ID NO: 4), +¼ MIC [2, 6]
1 µg/mL: MIC, ¼ + MIC OAK (MRSA 15903; MRSA 15903, with C12K(KNC10K)3NH2 (SEQ ID NO: 10) at ¼ of its MIC) | MIC, ⅓ + MIC OAK (MRSA 15903; MRSA 15903, with C12K(KNC10K)3NH2 (SEQ ID NO: 10) at ⅓ of its MIC) | MIC (MRSA 15903; Staphylococcus aureus, MRSA, 24 h, MRSA 15903, antibiotic alone (Table 22), read-out: MIC, Alone) | Antibiotic MIC (S. aureus 15877; [3]) | Antibiotic MIC (S. aureus 15877; +⅓ MIC (2.1 μM) C12(5-ene)KKNC12KNH2) | Antibiotic MIC (S. aureus 15877; no polymer (None), Table 8)
32 µg/mL: Antibiotic MIC (S. maltophila 748; +½ MIC (3.12 μM) C12K(KNC12K)3NH2) | Antibiotic MIC (E. coli 14384; [12]) | Antibiotic MIC (E. coli 16327; E. coli 16327, +½ MIC (3.12 μM) C14(9-ene)KKNC12KNH2) | Antibiotic MIC in presence of C12K(NC8K)7NH2 (SEQ ID NO: 4), +½ MIC (E. coli 16327; E. coli U-16327, polymer at ½ of its MIC) | Antibiotic MIC (E. coli 14182; +¼ MIC C12K(NC8K)5NH2) | Antibiotic MIC (E. coli 14182; +⅓ MIC C12K(NC8K)5NH2) | Antibiotic MIC in presence of C12K(NC8K)7NH2 (SEQ ID NO: 4), +¼ MIC (E. coli 14182; polymer at ¼ of its MIC) | Antibiotic MIC in presence of C12K(NC8K)7NH2 (SEQ ID NO: 4), +⅓ MIC (E. coli 14182; polymer at ⅓ of its MIC)
0.25 µg/mL: Antibiotic MIC (S. aureus 15819; [3]) | Antibiotic MIC (S. aureus 15819; [5]) | Antibiotic MIC (S. aureus 15819; no polymer (None), Table 8) | MIC (MRSA 15903; MRSA 15903, +⅓ polymer MIC (2.1 μM) NC12(KNC12K)2NH2) | MIC, ½ + MIC OAK (MRSA 15903; MRSA 15903, with C12K(KNC10K)3NH2 (SEQ ID NO: 10) at ½ of its MIC) | Antibiotic MIC (S. aureus 43300; +¼ MIC (1.6 μM) C16(9-ene)KKNC12KNH2) | Antibiotic MIC (S. aureus 17314; [9]) | Antibiotic MIC (S. aureus 17314; +¼ MIC (1.6 μM) C14(9-ene)KKNC12KNH2) | Antibiotic MIC (S. aureus 17314; [10]) | Antibiotic MIC (S. aureus 17314; [12]) | Antibiotic MIC (S. aureus 17314; +⅓ MIC (2.1 μM) C14(9-ene)KKNC12KNH2) | Antibiotic MIC (S. aureus 17314; no polymer (None), Table 9) | Antibiotic MIC (S. aureus 17314; no polymer (None), Table 10)
0.1 µg/mL: MIC (MRSA 15903; S. aureus CI-15903, +polymer (⅓ MIC) C12(5-ene)KKNC12KNH2)
0.5 µg/mL: Antibiotic MIC (S. aureus 15819; [4]) | Antibiotic MIC (S. aureus 15819; +¼ MIC (1.6 μM) C12KKNC12KNH2) | Antibiotic MIC (S. aureus 15819; +½ MIC (3.12 μM) C12KKNC12KNH2) | Antibiotic MIC (S. aureus 15819; +⅓ MIC (2.1 μM) C12KKNC12KNH2) | Antibiotic MIC (S. aureus 15819; no polymer (None), Table 11) | Antibiotic MIC (S. aureus 15819; no polymer (None), Table 13) | MIC (MRSA 15903; MRSA 15903, +¼ polymer MIC (1.6 μM) NC12(KNC12K)2NH2) | MIC (MRSA 15903; S. aureus CI-15903, +polymer (¼ MIC) C12(5-ene)KKNC12KNH2) | MIC (MRSA 15903; Staphylococcus aureus, MRSA, 24 h, MRSA 15903, antibiotic alone, read-out: MIC) | MIC (MRSA 15903; Staphylococcus aureus, MRSA, 24 h, S. aureus CI-15903, alone, read-out: MIC) | Antibiotic MIC, None ([1]; antibiotic alone (Table 16)) | Antibiotic MIC, None ([1]; antibiotic alone (Table 17)) | Antibiotic MIC in presence of C12K(NC8K)7NH2 (SEQ ID NO: 4), +¼ MIC [1, 6] | Antibiotic MIC in presence of C12K(NC8K)7NH2 (SEQ ID NO: 4), +⅓ MIC [1, 8] | Antibiotic MIC in presence of C12K(NC8K)7NH2 (SEQ ID NO: 4), +⅓ MIC [2, 8] | Antibiotic MIC (S. aureus 43300; [9]) | Antibiotic MIC (S. aureus 43300; +¼ MIC (1.6 μM) C12KKNC12KNH2) | Antibiotic MIC (S. aureus 43300; [10]) | Antibiotic MIC (S. aureus 43300; +½ MIC (3.12 μM) C12KKNC12KNH2) | Antibiotic MIC (S. aureus 43300; [11]) | Antibiotic MIC (S. aureus 43300; +⅓ MIC (2.1 μM) C12KKNC12KNH2) | Antibiotic MIC (S. aureus 17314; [11])
8 to 16 µg/mL: Antibiotic MIC (E. coli 14182; +½ MIC C12K(NC8K)5NH2) | Antibiotic MIC in presence of C12K(NC8K)7NH2 (SEQ ID NO: 4), +½ MIC (E. coli 14182; polymer at ½ of its MIC)
0.25 to 0.5 µg/mL: Antibiotic MIC in presence of C12K(NC8K)7NH2 (SEQ ID NO: 4), +½ MIC [1, 7] | Antibiotic MIC in presence of C12K(NC8K)7NH2 (SEQ ID NO: 4), +½ MIC [2, 7] | Antibiotic MIC (S. aureus 17314; +¼ MIC (1.6 μM) C12KKNC12KNH2) | Antibiotic MIC (S. aureus 17314; +½ MIC (3.12 μM) C12KKNC12KNH2) | Antibiotic MIC (S. aureus 17314; +⅓ MIC (2.1 μM) C12KKNC12KNH2) | Antibiotic MIC (S. aureus 17314; no polymer (None), Table 11) | Antibiotic MIC (S. aureus 17314; no polymer (None), Table 12)
64 µg/mL: Antibiotic MIC (E. coli 16329; +½ MIC C12K(NC8K)5NH2) | Antibiotic MIC (S. maltophila 748; [4]) | Antibiotic MIC (S. maltophila 748; [5]) | Antibiotic MIC in presence of C12K(NC8K)7NH2 (SEQ ID NO: 4), +½ MIC (E. coli 14384; polymer at ½ of its MIC) | MIC, ½ + MIC OAK (E. coli 16327; E. coli U16327, with C12K(KNC10K)3NH2 (SEQ ID NO: 10) at ½ of its MIC)
0.5 to 1 µg/mL: Antibiotic MIC (S. aureus 15877; +½ MIC (3.12 μM) C12(5-ene)KKNC12KNH2)
32 to 64 µg/mL: Antibiotic MIC in presence of C12K(NC8K)7NH2 (SEQ ID NO: 4), +½ MIC (E. coli 16329; polymer at ½ of its MIC) | Antibiotic MIC (E. coli 14384; +½ MIC C12K(NC8K)5NH2) | Antibiotic MIC, None (E. coli 14182; antibiotic alone (Table 15)) | Antibiotic MIC (E. coli 14182; no polymer (None), Table 14)
0.004 µg/mL: MIC (MRSA 15903; MRSA 15903, +½ polymer MIC (3.1 μM) NC12(KNC12K)2NH2)
0.06 µg/mL: MIC (MRSA 15903; S. aureus CI-15903, +polymer (½ MIC) C12(5-ene)KKNC12KNH2)
